Patent publication US11312719B2, “9-substituted amino triazolo quinazoline derivatives as adenosine receptor antagonists, pharmaceutical compositions and their use” (Merck Sharp & Dohme Corp., priority 2018, dated 2022)

Experiments:
[1] = target: human A2a adenosine receptor (Homo sapiens (Human), UniProt P29274); test: A2a receptor affinity radioligand binding assay ([3H] SCH58261); conditions: membranes from HEK293 or CHO cells expressing human A2a receptor
Description: The A2a receptor affinity binding assay measured the amount of binding of a tritiated ligand with high affinity for the A2a adenosine receptor to membranes made from HEK293 or CHO cells recombinantly expressing the human A2a adenosine receptor, in the presence of varying concentrations of a compound of the invention.
Measurement of A2a Binding Affinity Using Radioligand Binding
148 μL (5 μg/mL) membranes (Perkin Elmer, Cat. No. RBHA2aM400UA) and 2 μL compounds of the invention to be tested (test compound) were transferred to individual wells of a 96-well polypropylene assay plate and incubated for 15 to 30 minutes at room temperature. [^3H] SCH58261 ((7-(2-phenylethyl)-5-amino-2-(2-furyl)-pyrazolo-[4,3-e]-1,2,4-triazolo[1,5-c]pyrimidine)) was diluted in assay buffer (50 mM Tris pH 7.4, 10 mM MgCl2, 0.005% Tween20) to a concentration of 4 nM and 50 μL transferred to each well of the assay plate. To define total and non-specific binding, wells containing 1% DMSO and 1 μM ZM241385 (Tocris Bioscience, Cat. No. 1036) respectively, were also included. The assay plate was incubated at room temperature for 60 minutes with agitation. Using a FilterMate Harvester® (Perkin Elmer), the contents of the assay plate were filtered through a UniFilter-96® PEI coated plate (Perkin Elmer Cat. No. 6005274 or 6005277). Filtering was achieved by aspirating the contents of the assay plate for 5 seconds, then washing and aspirating the contents three times with ice-cooled wash buffer (50 mM Tris-HCl pH 7.4, 150 mM NaCl) and allowing the vacuum manifold to dry the plate for 30 seconds. The filter plate was incubated for at least 1 hour at 55° C., and allowed to dry. The bottom of the filter plate was sealed with backing tape. 40 μL Ultima Gold™ (Perkin Elmer, Cat. No. 6013329) was added to each well of the filter plate and the top of the plate was sealed with TopSeal-A PLUS® clear plate seal (Perkin Elmer, Cat. No. 6050185). The plate was incubated for at least 20 minutes, and then the amount of radioactivity remaining in each well was determined using a TopCount® (Perkin Elmer) scintillation counter. After normalization to total and non-specific binding, the percent effect at each compound concentration was calculated. The plot of percent effect versus the log of compound concentration was analyzed electronically using a 4-parameter logistic fit based on the Levenberg-Marquardt algorithm to generate IC50 values.

[2] = target: human A2b adenosine receptor (Homo sapiens (Human), UniProt P29275); test: A2b radioligand filtration binding assay; conditions: for IC50: membranes from HEK293 cells expressing human A2b receptor
Sequence of human A2b adenosine receptor (P29275 whole entry): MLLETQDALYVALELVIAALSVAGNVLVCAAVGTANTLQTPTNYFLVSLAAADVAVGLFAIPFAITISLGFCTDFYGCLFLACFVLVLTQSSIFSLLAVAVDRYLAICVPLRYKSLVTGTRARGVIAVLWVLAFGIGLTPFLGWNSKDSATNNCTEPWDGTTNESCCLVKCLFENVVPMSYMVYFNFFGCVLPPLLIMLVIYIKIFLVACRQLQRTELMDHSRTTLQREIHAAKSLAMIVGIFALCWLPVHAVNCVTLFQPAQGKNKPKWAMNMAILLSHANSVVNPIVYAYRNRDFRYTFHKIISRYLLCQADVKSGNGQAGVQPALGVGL
Description: Measurement of A2b Binding Affinity
The reported affinity of the compounds of the invention for the human A2b adenosine receptor was determined experimentally using a radioligand filtration binding assay. This assay measures the amount of binding of a tritiated proprietary A2b receptor antagonist, in the presence and absence of a compound of the invention, to membranes made from HEK293 cells recombinantly expressing the human A2b adenosine receptor (Perkin Elmer, Cat. No. ES-013-C).
148 μL (135 μg/mL) membranes and 2 μL test compounds were transferred to individual wells of a 96-well polypropylene assay plate and incubated for 15 to 30 minutes at room temperature with agitation. Tritiated radioligand was diluted to a concentration of 14 nM in assay buffer (phosphate buffered saline without Magnesium and Calcium, pH 7.4; GE Healthcare Life Sciences, Cat. No. SH30256.01) and then 50 μL of the solution were transferred to each well of the assay plate. To define total and non-specific binding, wells containing 1% DMSO and 20 μM N-ethylcarboxamidoadenosine (Tocris Bioscience, Cat. No. 1691) respectively, were also included. The wells of the assay plate were incubated at room temperature for 60 minutes with agitation, then filtered using a FilterMate Harvester® (Perkin Elmer) or similar equipment through a UniFilter-96® PEI coated plate (Perkin Elmer Cat. No. 6005274 or 6005277). Filtering was achieved by aspirating the contents of the assay plate for 5 seconds, then washing and aspirating the contents three times with ice-cooled wash buffer (assay buffer supplemented with 0.0025% Brij58) and allowing the vacuum manifold to dry the plate for 30 seconds. The filter plate was incubated for at least 1 hour at 55° C. and allowed to dry. The bottom of the filter plate was then sealed with backing tape. 40 μL Ultima Gold™ (Perkin Elmer, Cat. No. 6013329) was added to each well of the filter plate and the top of the plate was sealed with TopSeal-A PLUS® clear plate seal (Perkin Elmer, Cat. No. 6050185). The plates were then incubated for at least 20 minutes, and then the amount of radioactivity remaining in each well was determined using a TopCount® (Perkin Elmer) scintillation counter. After normalization to total and non-specific binding, the percent effect at each compound concentration was calculated. The plot of percent effect versus the log of compound concentration was analyzed electronically using a 4-parameter logistic fit based on the Levenberg-Marquardt algorithm to generate IC50 values.

Sequence of human A2a adenosine receptor (P29274 whole entry): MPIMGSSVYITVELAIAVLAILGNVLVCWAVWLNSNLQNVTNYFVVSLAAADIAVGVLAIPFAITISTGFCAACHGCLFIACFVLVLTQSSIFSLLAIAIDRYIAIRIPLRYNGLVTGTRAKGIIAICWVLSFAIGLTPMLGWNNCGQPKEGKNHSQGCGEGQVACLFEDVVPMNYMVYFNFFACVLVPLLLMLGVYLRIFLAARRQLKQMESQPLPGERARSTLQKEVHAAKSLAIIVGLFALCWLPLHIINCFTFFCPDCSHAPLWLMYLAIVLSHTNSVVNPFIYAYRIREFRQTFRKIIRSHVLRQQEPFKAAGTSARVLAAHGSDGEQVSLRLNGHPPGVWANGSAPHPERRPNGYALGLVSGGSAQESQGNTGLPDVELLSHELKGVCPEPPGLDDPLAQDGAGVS

Row | Structure (SMILES) | IC50 [1] [nM] | IC50 [2] [nM] | A2B binding % Inh. @ 10000 nM ([2]; @ 10000 nM) [% Inh.]
1 | COc1cc2nc(N)n3nc(C4CN(c5cnn(CC(C)(C)O)c5)CCC4C)nc3c2cc1F (single isomer, unassigned) [Example 66, 1-(4-((3S or 3R,4S or 4R)-3-(5-amino-9-fluoro-8-methoxy-[1,2,4]triazolo[1,5-c]quinazolin-2-yl)-4-methylpiperidin-1-yl)-1H-pyrazol-1-yl)-2-methylpropan-2-ol] | 0.6 | 957 | 
2 | COc1cc(F)cc2c1nc(N)n1nc([C@H]3C[C@H](F)CN(c4cnn(CC(C)(C)O)c4)C3)nc21 (single isomer, unassigned) [Example 75, 1-(4-((3S,5S or 3R,5R)-3-(5-amino-9-fluoro-7-methoxy-[1,2,4]triazolo[1,5-c]quinazolin-2-yl)-5-fluoropiperidin-1-yl)-1H-pyrazol-1-yl)-2-methylpropan-2-ol] | 56.9 |  | 54
3 | COc1cc2nc(N)n3nc([C@@H]4C[C@@H](C)CN(c5cnn(CC(C)(C)O)c5)C4)nc3c2cc1F (single isomer, unassigned) [Example 92, rac-1-(4-((3R,5R or 3S,5S)-3-(5-amino-9-fluoro-8-methoxy-[1,2,4]triazolo[1,5-c]quinazolin-2-yl)-5-methylpiperidin-1-yl)-1H-pyrazol-1-yl)-2-methylpropan-2-ol] | 10.9 | 602 | 
4 | COc1cc2nc(N)n3nc([C@@H]4CCCN(c5cnn(C6CCCC6O)c5)C4)nc3c2cc1F (single isomer, unassigned) [Example 84, (1R or 1S,2R or 2S)-2-(4-((R)-3-(5-amino-9-fluoro-8-methoxy-[1,2,4]triazolo[1,5-c]quinazolin-2-yl)piperidin-1-yl)-1H-pyrazol-1-yl)cyclopentan-1-ol] | 2.3 | 117 | 
5 | COc1ccc(N2CCC[C@@H](c3nc4c5cc(F)c(OC)cc5nc(N)n4n3)C2)cn1 [Example 26, (R)-9-fluoro-8-methoxy-2-(1-(6-methoxypyridin-3-yl)piperidin-3-yl)-[1,2,4]triazolo[1,5-c]quinazolin-5-amine] | 3.9 | 48.7 | 
6 | COc1cc2nc(N)n3nc(C4CCC(C)N(c5cnn(CC6(CF)COC6)c5)C4)nc3c2cc1F (single isomer, unassigned) [Example 47, 9-fluor-2-((3R,6S or 3S,6R)-1-(1((3-(fluoromethyl)oxetan-3-yl)methyl)-1H-pyrazol-4-yl)-6-methylpiperidin-3-yl)-8-methoxy-[1,2,4]triazolo[1,5-c]quinazolin-5-amine] | 8.2 | 284 | 
7 | COc1cc2nc(N)n3nc([C@@H]4CC[C@H](C)N(c5cnn([C@@H](C)C(C)(C)O)c5)C4)nc3c2cc1F (single isomer, unassigned) [Example 49, (S or R)-3-(4-((2S,5R or 2R,5S)-5-(5-amino-9-fluoro-8-methoxy-[1,2,4]triazolo[1,5-c]quinazolin-2-yl)-2-methylpiperidin-1-yl)-1H-pyrazol-1-yl)-2-methylbutan-2-ol] | 0.3 | 2.7 | 
8 | COc1cc(F)cc2c1nc(N)n1nc(C3(F)CCCN(c4cnn(CC(C)(C)O)c4)C3)nc21 (single isomer, unassigned) [Example 133, (S or R)-1-(4-(3-(5-amino-9-fluoro-7-methoxy-[1,2,4]triazolo[1,5-c]quinazolin-2-yl)-3-fluoropiperidin-1-yl)-1H-pyrazol-1-yl)-2-methylpropan-2-ol] | 4.3 | 559 | 
9 | COc1cc2nc(N)n3nc(C4CCCCN(c5cnn(CC(C)(C)O)c5)C4)nc3c2cc1F (single isomer, unassigned) [Example 60, (R or S)-1-(4-(3-(5-amino-9-fluoro-8-methoxy-[1,2,4]triazolo[1,5-c]quinazolin-2-yl)azepan-1-yl)-1H-pyrazol-1-yl)-2-methylpropan-2-ol] | 31.4 | 5860 | 
